In brackets after ≈: the same amount, converted by molar mass. Where two headings read alike, the source gives them in different places. Numbered stars: 1 amine (or outer) side, 2 acyl side, 3 side chain; on linkers, the order of the positions; unused ones are H or OH. Square brackets hold non-standard residues; d marks the D form. Peptide text beside a SMILES is read from it. ξ: configuration not given here. X5 = CCN(CC)C1(CS[C@H](C(=O)[*:2])N(C)[*:1])CC1; X1 = CN(C)C1(CS[C@H](C(=O)[*:2])N(C)[*:1])CCC1; X6 = CCN(C)C1(CS[C@H](C(=O)[*:2])N(C)[*:1])CC1; ξNMeBmt = C/C=C/C[C@@H](C)[C@@H](O)C(NC)C(=O)O; X2 = CC(C)[C@H](C(=O)[*:2])N(Cc1ccccc1)[*:1]; NMeLeu(4-OH) = CN[C@@H](CC(C)(C)O)C(=O)O; NMeL = CN[C@@H](CC(C)C)C(=O)O; dNMeL = CN[C@H](CC(C)C)C(=O)O; dNMeV = CN[C@@H](C(=O)O)C(C)C; dAbu = CC[C@@H](N)C(=O)O
Columns and labels:
[1] = system: IL-2 production by stimulated T Cells (Jurkat cells); test: Inhibition of IL-2 production in stimulated Jurkat cells; type: cell-based; conditions: Homo sapiens, read-out: IL-2 inhibition IC50
Description: Compounds of formula (I) were tested for their inhibition of IL-2 production by stimulated T Cells, using Jurkat cells with anti-CD3 and anti-CD28 co-stimulation. […] Cyclosporine A (control) was also run at a 0.5-Log 9-point titration. starting at 500 ng/mL. All compounds to be tested were dissolved in dimethyl sulfoxide. Cytotoxicity was evaluated with parallel Alamar Blue plates. Jurkat cells were seeded at […] per well in 200 μL growth media in a 96-well plate. Cells were cultured in complete RPMI medium supplemented with 10% fetal bovine serum with one hour incubation at 37° C. with 5% carbon dioxide
PMA and PHA were diluted in complete media to a final concentration of 1 ng/mL and 5 μg/mL respectively. The diluted compounds were mixed 1:1 and 25 μL of the mixture was added per well. The plates were incubated overnight at 37° C. in 5% CO2.
The following day one hundred microliters of cell culture supernatant were transferred from each well to a non-sterile V-bottom plate and stored plate at −80° C. prior to analysis. Determination of IL-2 concentrations in the supernatant was performed using the Pierce Human IL-2 Colorimetric ELISA kit as per the manufacturer's directions (Pierce, #EH2IL25). Cell culture supernatants were diluted with an equal volume of complete RPMI (25 μL sample+25 μL RPMI per well) prior to testing in order to remain in linear range of the assay.
Duplicate wells containing cells in the absence of PMA/PHA and test drug (background) and duplicate wells containing cells stimulated with PMA/PHA in the absence of test drug (100% production of IL-2) were included as controls. Activated cells treated with DMSO were used to normalize IL-2 values. IL-2 standard curves were generated using a 4-parameter curve fit in SoftMax Pro software from Molecular Devices.
Two independent assays were performed to evaluate the effect of cyclosporine A and representative compounds on IL-2 production in PMA/PHA stimulated Jurkat cells (mean values were calculated).

[2] = biological target: Cyclophilin B (Homo sapiens, UniProt P23284); test: Cyclophilin binding, competitive ELISA; conditions: human recombinant cyclophilin
Cyclophilin B, sequence (P23284 34-216): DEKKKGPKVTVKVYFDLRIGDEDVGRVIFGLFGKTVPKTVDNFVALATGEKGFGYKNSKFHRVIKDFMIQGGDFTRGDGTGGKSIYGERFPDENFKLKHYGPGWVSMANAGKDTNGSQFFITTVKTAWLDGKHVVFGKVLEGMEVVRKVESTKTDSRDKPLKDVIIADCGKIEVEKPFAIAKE
Source text: Plates were washed as described above. […] Plates were washed as described above.

[3] = system: HCV RNA replicon, Genotype 1b; test: HCV replicon assay, 1b replicon (LUC); conditions: Hepatitis C virus, GETYPE1B, in Homo sapiens, 72 h, read-out: mean EC50, Genotype 1b
Source text: Compounds were examined in the human hepatoma cell a HCV RNA replicon containing a stable luciferase (LUC) reporter. The HCV RNA replicon ET contains the 5′ end of HCV (with the HCV Internal Ribosome Entry Site (IRES) and the first few amino acids of the HCV core protein) which drives the production of neomycin phosphotransferase (NeoR) fusion protein. A luciferase reported is incorporated into 1b replicon. The EMCV IRES element controls the translation of the HCV structural proteins NS3-NS5. The NS3 protein cleaves the HCV polyprotein to release the mature NS3, NS4A, NS4B, NS5A and NS5B proteins that are required for HCV replication. At the 3′ end of the replicon is the authentic 3′ NTR of HCV. The activity of the LUC reporter is directly proportional to HCV replication levels and positive-control antiviral compounds produce a reproducible antiviral response using the LUC endpoint.
The compounds were dissolved in DMSO at six half-log concentrations. HCV replicon cells were plated out into 96 well plates dedicated for the analysis of cell numbers (cytotoxicity) or antiviral activity and the next day the compounds were added to the appropriate wells. The cells were processed 72 hours later when the cells were still subconfluent. […] Compound EC50 and EC90 values were derived from HCV RNA levels assessed as HCV RNA replicon derived LUC activity. Cytotoxicity was expressed as IC50 and IC90, the concentration of compound that inhibited cell viability by 50% and 90%, respectively. Compound IC50 and IC90 values were calculated using a colorimetric assay as an indication of cell numbers and cytotoxicity. The activity of the LUC reporter is directly proportional to HCV RNA levels in the human cell line. The HCV-replicon assay was validated in parallel experiments using interferon-alpha-2b as a control. The compounds were tested in 1a replicon, (qRT_PCR/TaqMan), 1b replicon (LUC) and 2a replicon (qRT-PCR/TaqMan).

[4] = system: Influenza B (B/Allen/45); test: Anti-influenza virus cytoprotection assay in MDCK cells; type: cell-based; conditions: read-out: levels of inhibition
[5] = system: Influenza A H1N1 (A/CA/05/09); test: as above; type: cell-based; conditions: read-out: levels of inhibition
[6] = system: Influenza A H3N2 (A/HK/8/68); test: as above; type: cell-based; conditions: read-out: levels of inhibition
[7] = PMA/PHA stimulated Jurkat cells, mean of two independent assays

C/C=C/C[C@@H](C)[C@@H](O)C1C(=O)N[C@H](CC)C(=O)N(C)[C@H](SCC2(N(CC)CC)CC2)C(=O)N(C)[C@@H](CC(C)(C)O)C(=O)N[C@H](C(C)C)C(=O)N(C)[C@H](CC(C)C)C(=O)N[C@H](C)C(=O)N[C@@H](C)C(=O)N(C)[C@H](CC(C)C)C(=O)N(C)[C@H](CC(C)C)C(=O)N(C)[C@H](C(C)C)C(=O)N1C (some centres unmarked) [Compound D] (cyclo(A[dNMeL][dNMeL][dNMeV][ξNMeBmt][dAbu][X5][NMeLeu(4-OH)][dV][dNMeL][dA]))
IC50 [1, 7]: 13.4 µg/mL (≈ 9.74 µM) | IC50 [2]: 64 nM | EC50 [3]: 70 nM

C/C=C/C[C@@H](C)[C@@H](O)C1C(=O)N[C@H](CC)C(=O)N(C)[C@H](SCC2(N(C)CC)CC2)C(=O)N(C)[C@@H](CC(C)(C)O)C(=O)N[C@H](C(C)C)C(=O)N(C)[C@H](CC(C)C)C(=O)N[C@H](C)C(=O)N[C@@H](C)C(=O)N(C)[C@H](CC(C)C)C(=O)N(C)[C@H](CC(C)C)C(=O)N(C)[C@H](C(C)C)C(=O)N1C (some centres unmarked) [Compound E] (cyclo(A[dNMeL][dNMeL][dNMeV][ξNMeBmt][dAbu][X6][NMeLeu(4-OH)][dV][dNMeL][dA]))
IC50 [1, 7]: > 13.6 µg/mL | EC50 [3]: 20 nM

C/C=C/C[C@@H](C)[C@@H](O)C1C(=O)N[C@H](CC)C(=O)N(C)[C@H](SCC2(N(C)C)CCC2)C(=O)N(C)[C@@H](CC(C)C)C(=O)N(Cc2ccccc2)[C@H](C(C)C)C(=O)N(C)[C@H](CC(C)C)C(=O)N[C@H](C)C(=O)N[C@@H](C)C(=O)N(C)[C@H](CC(C)C)C(=O)N(C)[C@H](CC(C)C)C(=O)N(C)[C@H](C(C)C)C(=O)N1C (some centres unmarked) [Compound F] (cyclo(A[dNMeL][dNMeL][dNMeV][ξNMeBmt][dAbu][X1][NMeL][X2][dNMeL][dA]))
IC50 ([1]; Jurkat): 0.452 µg/mL (≈ 0.315 µM) | IC50 [2]: 43 nM | inhibition at 10 µM [4]: 15% | inhibition at 10 µM [5]: 98% | EC50 [3]: 520 nM | inhibition at 10 µM [6]: 68%

From patent publication US20140212381A1, “MACROCYCLES” (Scynexis, Inc., priority 2012, published 2014)
